Results from the supplement of paper PMC5908809.

Assays:
[1] = system: normal NK cells expanded with K562-aAPC; test: percent inhibition of viability; higher = more inhibition; details: 72 h, IL-2 2.5 ng/mL
Method: (§1)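 Drug sensitivity and resistance testing on K562-aAPC-expanded normal NK cells: 5 concentrations (10-fold steps over a 10,000-fold range), 72 h at 37 °C, viability by CellTiter-Glo normalised to DMSO and benzethonium chloride controls; DSS from the fitted curve.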

DERL-7 (IL-2 2.5 ng/mL) [2] = test: as above; details: 72 h
IMC-1 (IL-2 20 ng/mL) [3] = test: as above; details: 72 h
KAI3 (IL-2 2.5 ng/mL) [4] = test: as above; details: 72 h
KHYG-1 (IL-2 2.5 ng/mL) [5] = test: as above; details: 72 h
NK-92 (IL-2 2.5 ng/mL) [6] = test: as above; details: 72 h
NK-YS (IL-2 2.5 ng/mL) [7] = test: as above; details: 72 h
NKL (IL-2 2.5 ng/mL) [8] = test: as above; details: 72 h
SNK-6 (IL-2 2.5 ng/mL) [9] = test: as above; details: 72 h
YT (IL-2 2.5 ng/mL) [10] = test: as above; details: 72 h
[11] = system: normal primary NK cells, pool 1 (3 donors) (IL-2 2.5 ng/mL); test: as above; details: 72 h
[12] = system: normal primary NK cells, pool 1 (3 donors), resting (IL-2 0 ng/mL); test: as above; details: 72 h
[13] = system: normal primary NK cells, pool 2 (3 donors) (IL-2 2.5 ng/mL); test: as above; details: 72 h
[14] = system: normal primary NK cells, pool 3 (3 donors) (IL-2 2.5 ng/mL); test: as above; details: 72 h
[15] = system: normal NK cells expanded with K562-aAPC; test: drug sensitivity score (DSS) (DSS units); higher = more sensitive; extreme values may be limits of the assay; details: 72 h; IL-2 2.5 ng/mL
Method: as §1

DERL-7 (IL-2 2.5 ng/mL) [16] = test: as above; details: 72 h
IMC-1 (IL-2 20 ng/mL) [17] = test: as above; details: 72 h
KAI3 (IL-2 2.5 ng/mL) [18] = test: as above; details: 72 h
KHYG-1 (IL-2 2.5 ng/mL) [19] = test: as above; details: 72 h
NK-92 (IL-2 2.5 ng/mL) [20] = test: as above; details: 72 h
NK-YS (IL-2 2.5 ng/mL) [21] = test: as above; details: 72 h
NKL (IL-2 2.5 ng/mL) [22] = test: as above; details: 72 h
SNK-6 (IL-2 2.5 ng/mL) [23] = test: as above; details: 72 h
YT (IL-2 2.5 ng/mL) [24] = test: as above; details: 72 h
[25] = system: normal primary NK cells, pool 1 (3 donors) (IL-2 2.5 ng/mL); test: as above; details: 72 h
[26] = system: normal primary NK cells, pool 1 (3 donors), resting (IL-2 0 ng/mL); test: as above; details: 72 h
[27] = system: normal primary NK cells, pool 2 (3 donors) (IL-2 2.5 ng/mL); test: as above; details: 72 h
[28] = system: normal primary NK cells, pool 3 (3 donors) (IL-2 2.5 ng/mL); test: as above; details: 72 h

O=S(=O)(c1cccc2cnccc12)N1CCCNCC1 [Fasudil] (max concentration tested 50000 nM)
percent inhibition of viability [%]
Details | 5 nM | 50 nM | 500 nM | 5000 nM | 50000 nM
DERL-7 (IL-2 2.5 ng/mL) [2] | -1.59 | 2.77 | 2.04 | 10.3 | 31.5
IMC-1 (IL-2 20 ng/mL) [3] | -3.69 | 1.08 | -1.1 | -3.21 | -0.77
KAI3 (IL-2 2.5 ng/mL) [4] | -9.98 | -12.1 | -8.77 | 16.4 | 52.6
KHYG-1 (IL-2 2.5 ng/mL) [5] | -1.86 | -2.81 | -0.3 | 5.17 | 30.2
NK-92 (IL-2 2.5 ng/mL) [6] | -0.3 | -5 | -7.96 | 16.5 | 50
NK-YS (IL-2 2.5 ng/mL) [7] | -10.2 | -12.7 | -8.89 | -1.5 | 17.1
NKL (IL-2 2.5 ng/mL) [8] | -10.3 | -10.6 | -5.56 | 1.78 | 24
SNK-6 (IL-2 2.5 ng/mL) [9] | -14.4 | -9.67 | -10.4 | -26.7 | 19.7
YT (IL-2 2.5 ng/mL) [10] | -0.42 | -0.99 | 2.43 | 9.94 | 50.6
[1] | -7 | -8.84 | -5.88 | 5.82 | 20.5
[11] | -14.3 | 13.1 | 11.4 | 15.1 | 52.8
[12] | -18 | 5.15 | -1.43 | 5.51 | 16.6
[13] | -9.61 | 4.29 | 4.21 | 9.95 | 82.7
[14] | -8.61 | 9.41 | 3.96 | -0.18 | 54.6

Details | drug sensitivity score
DERL-7 (IL-2 2.5 ng/mL) [16] | 2.67
IMC-1 (IL-2 20 ng/mL) [17] | 0
KAI3 (IL-2 2.5 ng/mL) [18] | 5.22
KHYG-1 (IL-2 2.5 ng/mL) [19] | 2.15
NK-92 (IL-2 2.5 ng/mL) [20] | 5.03
NK-YS (IL-2 2.5 ng/mL) [21] | 0.3
NKL (IL-2 2.5 ng/mL) [22] | 1.12
SNK-6 (IL-2 2.5 ng/mL) [23] | 0.22
YT (IL-2 2.5 ng/mL) [24] | 4.32
[15] | 1.35
[25] | 4.47
[26] | 0.88
[27] | 6.25
[28] | 2.91

CN[C@@H](C)C(=O)N[C@H]1CN(C(=O)CC(C)C)CC[C@H]2CC[C@@H](C(=O)NC(c3ccccc3)c3ccccc3)N2C1=O [AT-406] (max concentration tested 10000 nM)
percent inhibition of viability [%]
Details | 1 nM | 10 nM | 100 nM | 1000 nM | 10000 nM
DERL-7 (IL-2 2.5 ng/mL) [2] | -6.8 | 8.09 | 10.6 | 21.5 | 39.4
IMC-1 (IL-2 20 ng/mL) [3] | -6.88 | -6.17 | 4.87 | 17.4 | 12.2
KAI3 (IL-2 2.5 ng/mL) [4] | 0.46 | -9.34 | -3.88 | 10.2 | 62.7
KHYG-1 (IL-2 2.5 ng/mL) [5] | -3.13 | -12.2 | -7.84 | 25.9 | 91.8
NK-92 (IL-2 2.5 ng/mL) [6] | -23.7 | -16.2 | 3.03 | 13.5 | 49.2
NK-YS (IL-2 2.5 ng/mL) [7] | -5.59 | -11.9 | -8.91 | -3.43 | 6.14
NKL (IL-2 2.5 ng/mL) [8] | 2.76 | 0.59 | 0.42 | 22.9 | 30.9
SNK-6 (IL-2 2.5 ng/mL) [9] | -9.2 | -11.9 | -1.09 | 4.11 | 11.8
YT (IL-2 2.5 ng/mL) [10] | 0.43 | -2.82 | -3.18 | 14.6 | 35.9
[1] | -3.38 | -2.67 | 4.16 | 25.7 | 52.9
[11] | -7.15 | 1.28 | 15.2 | 27.8 | 74
[12] | -17.3 | -12.3 | 13.9 | 28.4 | 73.2
[13] | -16.6 | -8.69 | 4.59 | 20.9 | 64.6
[14] | -11.2 | -10.2 | 2.26 | 13 | 61.8

Details | drug sensitivity score
DERL-7 (IL-2 2.5 ng/mL) [16] | 4.83
IMC-1 (IL-2 20 ng/mL) [17] | 2.57
KAI3 (IL-2 2.5 ng/mL) [18] | 5.12
KHYG-1 (IL-2 2.5 ng/mL) [19] | 8.94
NK-92 (IL-2 2.5 ng/mL) [20] | 4.65
NK-YS (IL-2 2.5 ng/mL) [21] | 0
NKL (IL-2 2.5 ng/mL) [22] | 3.99
SNK-6 (IL-2 2.5 ng/mL) [23] | 0.19
YT (IL-2 2.5 ng/mL) [24] | 3.66
[15] | 5.72
[25] | 7.33
[26] | 7.24
[27] | 6.28
[28] | 5.48

CC1(C)CCC(c2ccc(Cl)cc2)=C(CN2CCN(c3ccc(C(=O)NS(=O)(=O)c4ccc(N[C@H](CCN5CCOCC5)CSc5ccccc5)c(S(=O)(=O)C(F)(F)F)c4)cc3)CC2)C1 [Navitoclax] (max concentration tested 10000 nM)
percent inhibition of viability [%]
Details | 1 nM | 10 nM | 100 nM | 1000 nM | 10000 nM
DERL-7 (IL-2 2.5 ng/mL) [2] | 2 | 1.88 | 47.8 | 93 | 100
IMC-1 (IL-2 20 ng/mL) [3] | -6.88 | -0.75 | 19.6 | 38.7 | 79.4
KAI3 (IL-2 2.5 ng/mL) [4] | 19.6 | 80.7 | 102 | 104 | 97.4
KHYG-1 (IL-2 2.5 ng/mL) [5] | -3.19 | -1.54 | 72.7 | 102 | 96.3
NK-92 (IL-2 2.5 ng/mL) [6] | -0.38 | -1.7 | 27 | 83.7 | 95.2
NK-YS (IL-2 2.5 ng/mL) [7] | 0.62 | 12 | 56.3 | 99.3 | 96.6
NKL (IL-2 2.5 ng/mL) [8] | -5.66 | 12.4 | 83.2 | 101 | 97.8
SNK-6 (IL-2 2.5 ng/mL) [9] | 16.9 | 69.7 | 99 | 99.5 | 98.8
YT (IL-2 2.5 ng/mL) [10] | 2.71 | 25.2 | 69.4 | 77.4 | 87.6
[1] | -0.31 | -4.48 | 10.3 | 55 | 77
[11] | -16.8 | -9.66 | 60 | 94 | 99.9
[12] | 2.54 | 48 | 98.3 | 100 | 99.9
[13] | -16.4 | 3.46 | 56.9 | 95.9 | 99
[14] | -14.4 | -12.2 | 24.6 | 87.2 | 95.9

Details | drug sensitivity score
DERL-7 (IL-2 2.5 ng/mL) [16] | 23
IMC-1 (IL-2 20 ng/mL) [17] | 9.91
KAI3 (IL-2 2.5 ng/mL) [18] | 42.1
KHYG-1 (IL-2 2.5 ng/mL) [19] | 26.3
NK-92 (IL-2 2.5 ng/mL) [20] | 18.6
NK-YS (IL-2 2.5 ng/mL) [21] | 24.8
NKL (IL-2 2.5 ng/mL) [22] | 29.4
SNK-6 (IL-2 2.5 ng/mL) [23] | 39.8
YT (IL-2 2.5 ng/mL) [24] | 26.4
[15] | 11.7
[25] | 25.1
[26] | 36.1
[27] | 24.6
[28] | 19.2

C=C(c1ccc(C(=O)O)cc1)c1cc2c(cc1C)C(C)(C)CCC2(C)C [Bexarotene] (max concentration tested 10000 nM)
percent inhibition of viability [%]
Details | 1 nM | 10 nM | 100 nM | 1000 nM | 10000 nM
DERL-7 (IL-2 2.5 ng/mL) [2] | -1.72 | -14.1 | -7.53 | 1.51 | 6.9
IMC-1 (IL-2 20 ng/mL) [3] | -7.44 | -4.67 | -6.9 | -7.39 | 14.5
KAI3 (IL-2 2.5 ng/mL) [4] | -2.82 | 4.02 | 5.5 | 12.6 | 29.6
KHYG-1 (IL-2 2.5 ng/mL) [5] | 0.07 | -1.61 | 31.4 | 35.3 | 42.5
NK-92 (IL-2 2.5 ng/mL) [6] | -0.26 | -14.3 | 18 | 38.2 | 32.8
NK-YS (IL-2 2.5 ng/mL) [7] | -0.63 | -6.05 | 10.2 | 30.5 | 40.5
NKL (IL-2 2.5 ng/mL) [8] | -2.63 | -4.9 | 33.7 | 59.2 | 80.4
SNK-6 (IL-2 2.5 ng/mL) [9] | -4.84 | -4.27 | 10 | 4.19 | 25.4
YT (IL-2 2.5 ng/mL) [10] | 1.74 | -2.56 | 5.09 | 22.2 | 38.4
[1] | -0.13 | -7.46 | -13.6 | -8.25 | -6.11
[11] | 2.65 | 3.77 | 5.07 | -0.78 | 2.54
[12] | 6.01 | -4.44 | -0.24 | 2.22 | 15.6
[13] | -3.26 | -9.74 | -11.1 | -7.66 | 2.35
[14] | -2.37 | -1.77 | 4 | -8.07 | -0.96

Details | drug sensitivity score
DERL-7 (IL-2 2.5 ng/mL) [16] | 0
IMC-1 (IL-2 20 ng/mL) [17] | 0.08
KAI3 (IL-2 2.5 ng/mL) [18] | 2.32
KHYG-1 (IL-2 2.5 ng/mL) [19] | 11.4
NK-92 (IL-2 2.5 ng/mL) [20] | 9.12
NK-YS (IL-2 2.5 ng/mL) [21] | 6.37
NKL (IL-2 2.5 ng/mL) [22] | 15.3
SNK-6 (IL-2 2.5 ng/mL) [23] | 1.61
YT (IL-2 2.5 ng/mL) [24] | 4.39
[15] | 0
[25] | 0
[26] | 0.5
[27] | 0
[28] | 0
